Source: patent US20150320700A1, “Geranium oil and constituents thereof for treatment of neurodegenerative diseases” (The State of Israel, Ministry of Agriculture & Ru ral …, priority 2012, published 2015)
Structures can show the parent of a compound that is named as a salt.

Columns and labels:
[1] = biological target: T1, human erythrocytes' acetyl cholinesterase (Homo sapiens, UniProt P22303); assay: acetyl cholinesterase fluorescent activity assay; format: biochemical; conditions: human erythrocytes' acetyl cholinesterase 25 mU/mL, FIGS. 2-4
T1 construct: from tissue; host or cells: human erythrocytes
T1 sequence (P22303 32-617 isoform P22303-2 limits assumed): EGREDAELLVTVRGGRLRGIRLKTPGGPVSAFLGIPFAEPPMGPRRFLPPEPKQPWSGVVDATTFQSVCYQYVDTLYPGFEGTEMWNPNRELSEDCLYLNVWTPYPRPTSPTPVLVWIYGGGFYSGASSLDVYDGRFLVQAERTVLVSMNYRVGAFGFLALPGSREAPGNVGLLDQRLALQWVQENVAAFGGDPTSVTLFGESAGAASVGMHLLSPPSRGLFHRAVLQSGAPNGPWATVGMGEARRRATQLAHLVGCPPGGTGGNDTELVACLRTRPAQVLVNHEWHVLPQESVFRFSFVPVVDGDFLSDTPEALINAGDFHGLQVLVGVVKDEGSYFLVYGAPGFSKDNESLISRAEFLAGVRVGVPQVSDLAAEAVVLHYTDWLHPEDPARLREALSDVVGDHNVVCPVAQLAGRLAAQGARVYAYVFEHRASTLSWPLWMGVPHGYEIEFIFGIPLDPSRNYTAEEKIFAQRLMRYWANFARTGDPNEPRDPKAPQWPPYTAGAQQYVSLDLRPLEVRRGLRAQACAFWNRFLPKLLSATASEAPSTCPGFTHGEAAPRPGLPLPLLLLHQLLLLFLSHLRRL
Experimental: In this Example, Human erythrocytes acetyl cholinesterase (AChE) was incubated with different concentrations of geranium oil or each of its constituents.
In the results shown in FIG. 2, the different constituents were incubated with human erythrocytes' acetyl cholinesterase (25 mU/mL). The activity of acetyl cholinesterase was determined using a commercially available kit (acetyl cholinesterase fluorescent activity assay kit, Arbor assays).
Thus, inventors have tested the effect of both enantiomers on the enzymatic activity. […] The different enantiomers of citronellol were incubated with human erythrocytes' acetyl cholinesterase (25 mU/mL). The enzymatic activity was determined using a commercially available kit (acetyl cholinesterase fluorescent activity assay kit, Arbor assays).
In FIG. 4, different constituents of geranium oil (Geraniol, Citronellol (+) and Citronellol formate) were incubated with human erythrocytes' acetyl cholinesterase (25 mU/mL). The activity of acetyl cholinesterase was determined using a commercially available kit (acetyl cholinesterase fluorescent activity assay kit, Arbor assays).

primary microglial cells = assay: peroxyl radical-induced oxidation of DCFH (ROS) in primary microglial cells; format: cell-based; conditions: microglial cells incubated 1 h with compound; ABAP 0.6 mM; FIG. 1
Experimental: Microglial cells were incubated for one h with (S)(−)citronellol (FIG. 1A) and (R)(+)citronellol (FIG. 1B). Primary cultures of microglial cells has been prepared according to Elmann et al., Journal of Functional Foods 2 (2010), pp. 18. As in Elmann et al. BMC Complementary and Alternative Medicine 2011, 11:98, the cultures of microglial cells were then preloaded with the non-fluorescent cell permeating compound, 2′7′-dichlorofluorescein diacetate (DCF-DA) for 30 min and washed with PBS, after which, 2,2′-Azobis(amidinopropane) (ABAP) (0.6 mM) was added and ROS levels were measured at the indicated time points. Each point on the graph represents mean±SEM of 2 experiments (n=8).

Structure (SMILES) | enzymatic activity of acetyl cholinesterase [1] | enzymatic activity of acetyl cholinesterase ([1]; listed as (S)(−)citronellol) | peroxyl radical-induced oxidation of DCFH (ROS levels) (primary microglial cells) | enzymatic activity of acetyl cholinesterase ([1]; listed as Citronellol (+))
CC(C)=CCC[C@H](C)CCO [(S)(−)-citronellol] | inhibited the enzymatic activity | could inhibit the enzymatic activity | inhibit the peroxyl radical-induced oxidation of DCFH | –
CC(C)=CCC/C(C)=C/CO [geraniol, reference compound] | none of the constituents geraniol, Citronellol (+) and citronellol formate could inhibit AChE activity | – | – | –
CC(C)=CCCC(C)CCOC=O (centres unmarked) [citronellol formate, reference compound] | none of the constituents geraniol, Citronellol (+) and citronellol formate could inhibit AChE activity | – | – | –
CC(C)=CCC[C@@H](C)CCO [(R)(+)citronellol, reference compound] | not (R)(+)citronellol could inhibit the enzymatic activity | – | inhibit the peroxyl radical-induced oxidation of DCFH | none of the constituents geraniol, Citronellol (+) and citronellol formate could inhibit AChE activity
CC(C)[C@@H]1CC[C@@H](C)CC1=O [menthone] | inhibited the enzymatic activity | – | – | –
C=CC(C)(O)CCC=C(C)C (centres unmarked) [linalool] | inhibited the enzymatic activity | – | – | –
CC(C)[C@H]1CC[C@@H](C)CC1=O [isomenthone] | inhibited the enzymatic activity | – | – | –
